Data published in article PMC3419744, “Anti-Tumor Activity of a Novel HS-Mimetic-Vascular Endothelial Growth Factor Binding Small Molecule” (PLoS ONE, 2012).
“Also recorded” adds a separate entry of the source. Read-outs that look alike come from different tables or passages of the source.

Experiments:
LM8 cells = assay: Proliferation assay (TetraColor One), LM8 cells; format: cell-based, murine; details: for IC50: 48 h, NS = not significant, read-out: IC50, inhibition of proliferation, LM8
Experimental: (§1) Two tumor cell lines such as LM8, LM8G7, and UV♀2 endothelial were used to evaluate the anti-proliferative activity of the compounds. UV♀2 (1×10^4 cells) or LM8 or LM8G7 cells (5×10^3 cells) were seeded in 96-well plate and incubated overnight at 37°C. […] 5 µL of TetraColor One reagent was added and incubated for an additional 2–4 h and the absorbance at 450 nm (Bio-Rad) was measured. […] The results were expressed as a percentage of viable cells relative to cells treated with DMSO. The viability of the cells was expressed in percentage terms and IC50 value was calculated.

LM8G7 cells = assay: Proliferation assay (TetraColor One), LM8G7 cells; format: cell-based, murine; details: for IC50: NS = not significant, read-out: IC50, inhibition of proliferation, LM8G7
Experimental: as §1

UV♀2 cells = assay: Proliferation assay (TetraColor One), UV♀2 endothelial cells; format: cell-based, mouse; details: for IC50: 48 h, serum-containing conditions (10%FBS), NS = not significant, read-out: IC50, inhibition of proliferation, UV♀2
Experimental: as §1

VEGF = target: T1, VEGF (Homo sapiens, UniProt P15692); assay: SPR imaging of immobilized small molecules binding to VEGF; details: compounds immobilized on chip, growth factor 50 µg/mL
T1 construct: purchased Wako Pure Chemicals Co. (Osaka, Japan)
T1 sequence (P15692 1-191 isoform P15692-4): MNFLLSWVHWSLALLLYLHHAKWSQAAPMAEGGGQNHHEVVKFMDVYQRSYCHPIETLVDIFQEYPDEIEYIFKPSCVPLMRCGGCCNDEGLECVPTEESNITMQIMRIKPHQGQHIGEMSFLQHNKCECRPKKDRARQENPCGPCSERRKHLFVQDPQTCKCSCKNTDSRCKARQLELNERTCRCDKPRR
Experimental: (§2) The chip was washed successively with ethanol, water, and ethanol. Then the chip is air dried to obtain the photo reactive chip. The compounds 1–9 were spotted on the chip (10 mM), washed, and dried in vacuo, and then irradiated at 365 nm under a UV transmission filter (Sigma-Koki, Japan). The compounds were immobilized onto the photo-reactive linker that bound to the gold-surface of the glass chip was set into an SPR imaging instrument (TOYOBO), and each growth factor (50 µg/mL) was injected onto the array surface at 0.1 ml/min and incubated for 10 min. The SPR image and signal data were collected with an SPR analysis program (TOYOBO). The SPR difference image was constructed by using the Scion Image program (Scion, MD).

[1] = target: T2, VEGF165 binding to immobilised heparin (Homo sapiens, UniProt P15692); assay: BIAcore analysis of VEGF165 binding to immobilised heparin; details: VEGF165 250 nM
T2 construct: purchased Wako Pure Chemicals Co. (Osaka, Japan)
T2 sequence (P15692 1-191 isoform P15692-4): T1 sequence (P15692 1-191 isoform P15692-4)
Experimental: The heparin-immobilized sensor chip was prepared as reported earlier. […] The flow rate was kept at a moderate speed ([…]) according to the manufacturer's recommendations.

FGF-2 = target: T3, FGF-2 (Homo sapiens, UniProt P09038); assay: SPR imaging of immobilized small molecules binding to FGF-2; details: compounds immobilized on chip, growth factor 50 µg/mL
T3 construct: purchased Wako Pure Chemicals Co. (Osaka, Japan)
T3 sequence (P09038 134-288): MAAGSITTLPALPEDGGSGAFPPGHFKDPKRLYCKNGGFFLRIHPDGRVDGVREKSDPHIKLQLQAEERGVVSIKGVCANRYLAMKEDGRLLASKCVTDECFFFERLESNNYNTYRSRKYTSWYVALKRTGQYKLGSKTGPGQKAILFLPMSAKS
Experimental: as §2

[2] = Mus musculus, LM8G7, 48 h, 48 h

Compound | IC50 (LM8 cells; Mus musculus) [µM] | IC50 (UV♀2 cells; Mus musculus, Endothelial cell) [µM] | IC50 (LM8G7 cells; [2]) [µM] | binding to VEGF (SPR signal) (VEGF) | further results
N.N.[Cl][Pt][Cl] [Cisplatin, reference compound] | – | – | – | – | IC50 (LM8 cells): 30 ± 24 µM; IC50 (LM8G7 cells; 48 h): 15 ± 0.6 µM; IC50 (UV♀2 cells): 12 ± 0.4 µM
Cc1ccc(C(=O)Nc2ccc(S(=O)(=O)O)c3cc(S(=O)(=O)O)cc(S(=O)(=O)O)c23)cc1NC(=O)c1cccc(NC(=O)Nc2cccc(C(=O)Nc3cc(C(=O)Nc4ccc(S(=O)(=O)O)c5cc(S(=O)(=O)O)cc(S(=O)(=O)O)c45)ccc3C)c2)c1 [Suramin, reference compound] | 12 ± 2.8 | 34 ± 1.4 | – | – | inhibition of proliferation of LM8 cells (in words) (LM8 cells): comparable with the inhibitory activity of compound 8; inhibition of proliferation of LM8G7 cells (in words) (LM8G7 cells): comparable with the inhibitory activity of compound 8; IC50 (LM8G7 cells; Mus musculus, LM8G7, 48 h): 14 ± 24 µM
Cc1nnc(S)n1N=Cc1c(F)cccc1F [compound 5, 4-[(2,6-Difluoro-benzylidene)-amino]-5-methyl-4H-[1,2,4]triazole-3-thiol] | 36 ± 6.4 | 45 ± 2.1 | > 100 | – | –
CCc1nnc(S)n1N=Cc1c(F)cccc1F [compound 6, 4-[(2,6-Difluoro-benzylidene)-amino]-5-ethyl-4H-[1,2,4]triazole-3-thiol] | 64 ± 6.7 | 14 ± 4.6 | 23 ± 0.5 | significantly; also recorded: weak binding | effect on proliferation of UV♀2 cells (in words) (UV♀2 cells): moderately inhibited
Fc1cccc(F)c1C=Nn1c(S)nnc1-c1ccccc1 [compound 7, 4-[(2,6-difluoro-benzylidene)-amino]-5-phenyl-4H-[1,2,4]triazole-3-thiol] | > 100 | > 100 | > 100 | does not bind VEGF | inhibition of binding of VEGF165 to immobilised heparin [1]: failed to inhibit the binding of VEGF to heparin
CCCCc1nc(Cl)c(C=O)n1Cc1ccc([N+](=O)[O-])cc1 [compound 8, 2-butyl-5-chloro-3-(4-nitro-benzyl)-3H-imidazole-4-carbaldehyde] | – | – | – | very strongly; also recorded: strongly | binding to FGF-2 (SPR signal) (FGF-2): significantly, although with weaker affinity compared to its VEGF binding; also recorded: weakly; inhibition of binding of VEGF165 to immobilised heparin [1]: inhibited the binding of VEGF165 to the immobilised heparin
CCCCc1nc(Cl)c(C=O)n1Cc1cc2c(cc1C)OCO2 [compound 9] | – | – | – | – | IC50 (LM8 cells): 46 ± 6.7 µM; IC50 (LM8G7 cells; 48 h): > 100 µM; IC50 (UV♀2 cells): > 100 µM
